From US12428406B2 (PMV Pharmaceuticals, Inc., priority 2019, dated 2025)

Biological target: T1, p53 Y220C (Homo sapiens, UniProt P04637, Y220C)
T1 construct: The recombinant protein was a truncation mutant containing only amino acids 94-312 of p53; made in house; host or cells: E. coli
Assay: In vitro DNA binding activity assay (HTRF / TR-FRET): stabilization of p53 Y220C and increase of its DNA binding activity
Type: biochemical
Conditions: recombinant His-tagged p53 Y220C DNA binding domain (aa 94-312), biotin-labeled consensus DNA, incubated at 27° C. or 29° C. for 60 min
Procedure, shortened: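 His-tagged p53 Y220C, E. coli-expressed, binding biotin-labeled consensus DNA measured by HTRF (anti-His-APC, streptavidin-europium). Compounds from 4.5 mM DMSO stocks, 3-fold serial dilutions; incubations at room temperature 15 min, then 20 min. SC150 = concentration raising DNA binding by 50%.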

T1 sequence (P04637 94-312, change not shown): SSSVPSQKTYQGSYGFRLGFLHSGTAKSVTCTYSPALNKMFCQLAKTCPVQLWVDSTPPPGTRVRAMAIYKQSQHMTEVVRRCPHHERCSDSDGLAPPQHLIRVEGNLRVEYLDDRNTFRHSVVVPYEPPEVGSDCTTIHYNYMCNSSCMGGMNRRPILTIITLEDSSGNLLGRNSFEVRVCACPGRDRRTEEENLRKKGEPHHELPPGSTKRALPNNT

Row | SMILES | SC150 (concentration of the compound required to increase the DNA binding activity by 50%)
1 | COc1cc(S(N)(=O)=O)ccc1NCC#Cc1cc2c(N[C@H]3CC[C@H](N4CC5(CCOCC5)C4)CC3)cccc2n1CC(F)(F)F [Compound 297A, 3-methoxy-4-{[3-(4-{[(1R,4R)-4-{7-oxa-2-azaspiro[3.5]nonan-2-yl}cyclohexyl]amino}-1-(2,2,2-trifluoroethyl)-1H-indol-2-yl)prop-2-yn-1-yl]amino}benzene-1-sulfonamide] | + (+ = 0 μM ≤ SC150 < 0.05 μM)
2 | CCCn1c(C#CCNc2ccc(S(C)(=O)=O)cc2OC)cc2c(N[C@H]3CC[C@H](N4CCOCC4)CC3)cccc21 [Compound 178A, 2-{3-[(4-methane-sulfonyl-2-methoxy-phenyl)amino]prop-1-yn-1-yl}-1-propyl-N-[(1R,4R)-4-(morpholin-4-yl)cyclohexyl]-1H-indol-4-amine] | + (+ = 0 μM ≤ SC150 < 0.05 μM)
3 | CN(C)[C@H]1CC[C@H](Nc2cccc3c2cc(C#CCNc2ccc(S(C)(=O)=O)cc2C(F)(F)F)n3CC(F)(F)F)CC1 [Compound 139A, (1R,4R)-N^4-[2-(3-{[4-methanesulfonyl-2-(trifluoromethyl)phenyl]amino}prop-1-yn-1-yl)-1-(2,2,2-trifluoroethyl)-1H-indol-4-yl]-N^1,N^1-dimethylcyclohexane-1,4-diamine] | + (+ = 0 μM ≤ SC150 < 0.05 μM)
4 | CNC(=O)c1ccc(NCC#Cc2cc3c(NC4CCC(C#N)CC4)cccc3n2CC(F)(F)F)c(OC)c1 (stereo not shown) [Compound 33A, 4-[(3-{4-[(4-cyanocyclohexyl)amino]-1-(2,2,2-trifluoroethyl)-1H-indol-2-yl}prop-2-yn-1-yl)amino]-3-methoxy-N-methylbenzamide] | + (+ = 0 μM ≤ SC150 < 0.05 μM)
5 | COc1cc(C(N)=O)ccc1NCC#Cc1cc2c(N[C@@H]3C[C@@H](C)O[C@@H](C)C3)cccc2n1CC(F)(F)F [Compound 1030A, 3-methoxy-4-{[3-(4-{[(2R,4S,6S)-2,6-dimethyloxan-4-yl]amino}-1-(2,2,2-trifluoroethyl)-1H-indol-2-yl)prop-2-yn-1-yl]amino}benzamide] | ++ (++ = 0.05 μM ≤ SC150 < 0.1 μM)
6 | COc1cc(C(=O)N2CC3(CCOCC3)C2)ccc1NCC#Cc1cc2c(N[C@@H]3CCN(C)C[C@@H]3F)cccc2n1CC(F)(F)F [Compound 907A, N-[(3S,4R)-3-fluoro-1-methylpiperidin-4-yl]-2-{3-[(2-methoxy-4-{7-oxa-2-azaspiro[3.5]nonane-2-carbonyl}phenyl)amino]prop-1-yn-1-yl}-1-(2,2,2-trifluoroethyl)-1H-indol-4-amine] | + (+ = 0 μM ≤ SC150 < 0.05 μM)
7 | COc1cc(S(C)(=O)=O)ccc1NCC#Cc1cc2c(N[C@H]3CC[C@H](N4CCCC4)CC3)cccc2n1CC(F)(F)F [Compound 424A, 2-{3-[(4-methane-sulfonyl-2-methoxy-phenyl)amino]prop-1-yn-1-yl}-N-[(1R,4R)-4-(pyrrolidin-1-yl)cyclohexyl]-1-(2,2,2-trifluoroethyl)-1H-indol-4-amine] | + (+ = 0 μM ≤ SC150 < 0.05 μM)
8 | COc1cc(S(C)(=O)=O)ccc1NCC#Cc1cc2c(N[C@H]3CC[C@H](N4CCOCC4)CC3)cccc2n1CC(C)C [Compound 179A, 2-{3-[(4-methane-sulfonyl-2-methoxy-phenyl)amino]prop-1-yn-1-yl}-1-(2-methyl-propyl)-N-[(1R,4R)-4-(morpholin-4-yl)cyclohexyl]-1H-indol-4-amine] | ++ (++ = 0.05 μM ≤ SC150 < 0.1 μM)
9 | COc1cc(C(=O)N[C@@H](CCC(=O)O)C(=O)O)ccc1NCC#Cc1cc2c(N[C@@H]3CCN(C)C[C@@H]3F)cccc2n1CC(F)(F)F [Compound 929A, (2S)-2-[(4-{[3-(4-{[(3S,4R)-3-fluoro-1-methylpiperidin-4-yl]amino}-1-(2,2,2-trifluoroethyl)-1H-indol-2-yl)prop-2-yn-1-yl]amino}-3-methoxyphenyl)formamido]pentanedioic acid] | + (+ = 0 μM ≤ SC150 < 0.05 μM)
10 | COc1cc(S(N)(=O)=O)ccc1NCC#Cc1cc2c(N[C@H]3CC[C@H](N4CCCC4)CC3)cccc2n1CC(F)(F)F [Compound 422A, 3-methoxy-4-{[3-(4-{[(1R,4R)-4-(pyrrolidin-1-yl)cyclohexyl]amino}-1-(2,2,2-trifluoroethyl)-1H-indol-2-yl)prop-2-yn-1-yl]amino}benzene-1-sulfonamide] | + (+ = 0 μM ≤ SC150 < 0.05 μM)
11 | CCN1CC[C@H](Nc2cccc3c2cc(C#CCNc2ccc(C(=O)O)cc2OC)n3CC(F)(F)F)[C@H](F)C1 (racemic) [Compound 958A, 4-((3-(4-(((3R,4S)-1-ethyl-3-fluoropiperidin-4-yl)amino)-1-(2,2,2-trifluoroethyl)-1H-indol-2-yl)prop-2-yn-1-yl)amino)-3-methoxybenzoic acid] | + (+ = 0 μM ≤ SC150 < 0.05 μM)
12 | COc1cc(S(=O)(=O)N2CCOCC2)ccc1NCC#Cc1cc2c(N[C@H]3CC[C@@H](N(C)C)CC3)cccc2n1CC(F)(F)F [Compound 68A, (1S,4S)-N4-[2-(3-{[2-methoxy-4-(morpholine-4-sulfonyl)phenyl]amino}prop-1-yn-1-yl)-1-(2,2,2-trifluoro-ethyl)-1H-indol-4-yl]-N^1,N^1-dimethyl-cyclohexane-1,4-diamine] | + (+ = 0 μM ≤ SC150 < 0.05 μM)
13 | COc1cc(S(C)(=O)=O)ccc1NCC#Cc1cc2c(N[C@H]3CCN(C(C)=O)C[C@H]3F)cccc2n1CC(F)(F)F [Compound 863A, 1-[(3R,4S)-3-fluoro-4-[(2-{3-[(4-methanesulfonyl-2-methoxyphenyl)amino]prop-1-yn-1-yl}-1-(2,2,2-trifluoroethyl)-1H-indol-4-yl)amino]piperidin-1-yl]ethan-1-one] | + (+ = 0 μM ≤ SC150 < 0.05 μM)
14 | COc1cc(S(C)(=O)=O)ccc1NCC#Cc1cc2c(NC3CCN(CC(O)COCC(O)CO)CC3)cccc2n1CC(F)(F)F (stereo not shown) [Compound 669A, 3-(2-hydroxy-3-{4-[(2-{3-[(4-methanesulfonyl-2-methoxyphenyl)amino]prop-1-yn-1-yl}-1-(2,2,2-trifluoroethyl)-1H-indol-4-yl)amino]piperidin-1-yl}propoxy)propane-1,2-diol] | + (+ = 0 μM ≤ SC150 < 0.05 μM)
15 | COc1cc(S(C)(=O)=O)ccc1NCC#Cc1cc2c(NC3CCC(N)CC3F)cccc2n1CC(F)(F)F (stereo not shown) [Compound 37A] | + (+ = 0 μM ≤ SC150 < 0.05 μM)
16 | CNC(=O)c1cc(OC)c(NCC#Cc2cc3c(NC4CCN(CC(O)COC)CC4)cccc3n2CC(F)(F)F)cc1F (stereo not shown) [Compound 690A, 2-fluoro-4-{[3-(4-{[1-(2-hydroxy-3-methoxypropyl)piperidin-4-yl]amino}-1-(2,2,2-trifluoroethyl)-1H-indol-2-yl)prop-2-yn-1-yl]amino}-5-methoxy-N-methylbenzamide] | + (+ = 0 μM ≤ SC150 < 0.05 μM)
